Earlier results in US20240277629A1, “USE OF THYROID HORMONE T4 IN A HIGH VERSATILITY TREATMENT IN PATIENTS TAKING PROTON PUMP INHIBITORS” (ALTERGON S.A., priority 2021, published 2024).

Conditions: patients under therapy with PPIs (Centanni et al. 2006)

## N[C@@H](Cc1cc(I)c(Oc2cc(I)c(O)c(I)c2)c(I)c1)C(=O)O [T4, levothyroxine]
  Increase of daily dose of T4 needed to obtain the desired blood levels of thyroid hormone: 37%
